In PMC9367459 (Animals : an Open Access Journal from MDPI, 2022):
“And” between values parts separate entries of the source, which are not always exact repeats. Identical values can stand only once. Like-named read-outs stand apart in the source and are kept apart here.

Experiments:
[1] = biological target: FMDV 3C^pro (Foot-and-mouth disease virus, UniProt P03306); assay: cell-based; settings: for IC90: HEK-293T
[2] = tested on: FMDV serotype A; assay type: cell-based, A/TAI/NP05/2016 (NP05)
[3] = tested on: BHK-21 cells; settings: hamster
[4] = tested on: FMDV serotype A; assay: organism not typed; settings: BHK-21
[5] = tested on: IFN-antagonist activity of FMDV 3C^pro; assay type: cell-based, human
[6] = tested on: FMDV; assay type: cell-based, FMDV serotype A, A/TAI/NP05/2016 (NP05)
[7] = in vitro; settings: hamster
[8] = tested on: chikungunya virus; settings: cited from earlier work
[9] = in vitro; settings: human
[10] = tested on: hepatitis B virus; settings: cited from earlier work
[11] = tested on: FMDV serotype A
[12] = tested on: FMDV; assay type: cell-based, FMDV serotype A, A/TAI/NP05/2016 (NP05); remark: listed apart in the source

Chain of FMDV 3C^pro (P03306 1650-1862 limits assumed): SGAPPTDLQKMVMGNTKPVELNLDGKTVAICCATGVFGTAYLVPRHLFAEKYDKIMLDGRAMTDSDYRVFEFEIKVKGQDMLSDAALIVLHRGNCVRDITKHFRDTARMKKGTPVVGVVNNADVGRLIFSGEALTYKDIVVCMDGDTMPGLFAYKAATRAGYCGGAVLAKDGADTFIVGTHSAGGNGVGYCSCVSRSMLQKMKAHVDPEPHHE

Compound | IC50 [1] [µM] | IC90 [1] [µM] | Viral nucleic acids (viral copy numbers) [2] | CC10 [3] [µM] | EC50 [4] [µM] | Effect on IFN-antagonist activity of 3C^pro [5] | ISG15 mRNA expression [5] | ISG56 mRNA expression [5] | Mx-1 mRNA expression [5] | PKR mRNA expression [5] | Protection activity [6] | CC50 [7] [µM] | EC50 [8] | CC50 [9] [µM] | EC50 [10] [µM] | SI (CC50/EC50) [11] | Extracellular virucidal activity [12] | CC50 [3] [µM] | OAS-1 mRNA expression [5] | EC50 [11] [µM]
C=C1CC[C@@H]2[C@](C)(CO)[C@H](O)CC[C@@]2(C)[C@@H]1C/C=C1/C(=O)OC[C@H]1O [AGL, andrographolide] | 67.4 ± 0.81 | 267.2 ± 2.43 | significantly decreased | 94.55 ± 0.02 | 52.18 ± 0.01 | significantly derepressed the IFN-antagonist activity of the 3C^pro | 52.93 fold-changes and 59.99 fold-changes | 72.73 fold-changes and 107.66 fold-changes | 5.33 fold-changes and 6.98 fold-changes | 6.22 fold-changes and 6.12 fold-changes | neither extracellular virucidal nor protection activities | 116.8 ± 0.03 | 77.4 µM and 88 µM | 453 ± 0.04 | 54.1 | 2.23 | neither extracellular virucidal nor protection activities |  |  | 
C=C1CC[C@@H]2[C@](C)(CO)[C@H](O)CC[C@@]2(C)[C@@H]1CCC1=CCOC1=O [DAG, deoxyandrographolide] | 25.6 ± 1.41 | 123 ± 2.09 | significantly decreased | 81.05 ± 0.01 | 36.47 ± 0.07 | significantly derepressed the IFN-antagonist activity of the 3C^pro | 62.36 fold-changes and 64.43 fold-changes | 84.77 fold-changes and 77.60 fold-changes | 14.37 fold-changes and 13.04 fold-changes | 11.65 fold-changes and 12.84 fold-changes | neither extracellular virucidal nor protection activities | 211.5 ± 0.03 |  | 651.4 ± 0.32 |  |  | neither extracellular virucidal nor protection activities | 332.3 ± 0.09 | 250.25 fold-changes and 244.76 fold-changes | 
C=C1CC[C@@H]2[C@](C)(CO[C@@H]3O[C@H](CO)[C@@H](O)[C@H](O)[C@H]3O)CCC[C@@]2(C)[C@@H]1CCC1=CCOC1=O [NEO, neoandrographolide] | 111 ± 2.04 | 635.8 ± 2.9 | reduced viral replication to a lesser extent | 149.94 ± 0.21 | > 500 | could not reduce the IFN suppression by 3C^pro | 37.58 fold-changes and 32.91 fold-changes | 62.33 fold-changes and 55.39 fold-changes | 2.19 fold-changes and 4.00 fold-changes | 3.65 fold-changes and 1.99 fold-changes | neither extracellular virucidal nor protection activities | 332.3 ± 0.09 |  | 914.2 ± 0.04 |  | 0.38 | neither extracellular virucidal nor protection activities | 211.5 ± 0.03 | 106.88 fold-changes and 163.69 fold-changes | 542.4 ± 0.2
